The source of these data is US9695152B2, “3,4-dihydro-2H-isoquinoline-1-one and 2,3-dihydro-isoindol-1-one compounds” (Hoffmann-La Roche Inc., priority 2013, dated 2017).

Experiment [1] deals with human CYP11B1 (Homo sapiens (Human), UniProt P15538). In words: G-402 cellular enzyme assay, human CYP11B1 (cortisol release, HTRF). Conditions: G-402 cells expressing human CYP11B1, 1 μM Deoxycortisol. The experiment is classed as cell-based. The text has this: (§1) Herein we identified the use of the G-402 cell line as a host cell to ectopically express (transiently or stably) enzymes of the CYP11 family. Specifically we developed stable G-402 cells expressing ectopically human CYP11B1, human CYP11B2, human CYP11A1, cynmolgus CYP11B1 or cynomolgus CYP11B2 enzyme activity. Importantly the identified cell line G-402 expresses co-factors (adrenodoxin and adrenodoxin reductase) important for the activity of the CYP11 family and no relevant enzyme activity of the CYP11 family (in comparison to H295R cells) was detected in these cells. Therefore the G-402 cell line is uniquely suited as a host cell for the ectopic expression of enzymes from the CYP11 family.
human CYP11B1, sequence (P15538 25-503): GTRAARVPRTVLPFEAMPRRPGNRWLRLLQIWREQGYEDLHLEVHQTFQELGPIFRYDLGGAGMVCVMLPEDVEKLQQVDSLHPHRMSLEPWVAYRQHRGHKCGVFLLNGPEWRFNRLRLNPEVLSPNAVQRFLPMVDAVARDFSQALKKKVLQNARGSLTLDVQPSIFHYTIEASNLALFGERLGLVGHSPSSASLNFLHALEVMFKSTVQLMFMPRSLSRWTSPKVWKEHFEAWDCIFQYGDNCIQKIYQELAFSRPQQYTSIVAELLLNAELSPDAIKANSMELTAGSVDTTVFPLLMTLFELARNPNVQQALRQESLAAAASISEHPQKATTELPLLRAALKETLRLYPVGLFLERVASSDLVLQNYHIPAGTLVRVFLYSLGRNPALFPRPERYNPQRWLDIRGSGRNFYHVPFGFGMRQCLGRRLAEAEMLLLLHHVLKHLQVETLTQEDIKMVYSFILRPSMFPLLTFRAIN
(§2) G-402 cells can be obtained from ATCC (CRL-1440) and were originally derived from a renal leiomyoblastoma.
(§3) The expression plasmids contains the ORF for either human/cyno CYP11B1 or CYP11B2 under the control of a suitable promoter (CMV-promoter) and a suitable resistance marker (neomycin). Using standard techniques the expression plasmid is transfected into G-402 cells and these cells are then selected for expressing the given resistance markers. Individual cell-clones are then selected and assessed for displaying the desired enzymatic activity using 11-Deoxycorticosterone (Cyp11B2) or 11-Deoxycortisol (Cyp11B1) as a substrate.
(§4) G-402 cells expressing CYP11 constructs were established as described above and maintained in McCoy's 5a Medium Modified, ATCC Catalog No. 30-2007 containing 10% FCS and 400 μg/ml G418 (Geneticin) at 37° C. under an atmosphere of 5% CO2/95% air. Cellular enzyme assays were performed in DMEM/F12 medium containing 2.5% charcoal treated FCS and appropriate concentration of substrate (0.3-10 uM 11-Deoxycorticosterone, 11-Deoxycortisol or Corticosterone). For assaying enzymatic activity, cells were plated onto 96 well plates and incubated for 16 h. An aliquot of the supernatant is then transferred and analyzed for the concentration of the expected product (Aldosterone for CYP11B2; Cortisol for CYP11B1). The concentrations of these steroids can be determined using HTRF assays from CisBio analyzing either Aldosterone or Cortisol.
(§5) Inhibition of the release of produced steroids can be used as a measure of the respective enzyme inhibition by test compounds added during the cellular enzyme assay. The dose dependent inhibition of enzymatic activity by a compound is calculated by means of plotting added inhibitor concentrations (x-axes) vs. measured steroid/product level (y-axes). The inhibition is then calculated by fitting the following 4-parameter sigmoidal function (Morgan-Mercer-Flodin (MMF) model) to the raw data points using the least squares method:
(§6) [formula] wherein, A is the maximum y value, B is the EC50 factor determined using XLFit, C is the minimum y value and D is the slope value.
(§7) EC50 values for compounds claimed herein were tested with the G402-based assay system described. Cyp11B2 enzyme activity was tested in presence of 1 μM Deoxycorticosterone and variable amounts of inhibitors; Cyp11B1 enzyme activity was tested in presence of 1 μM Deoxycortisol and variable amounts of inhibitors.
On the technique in general: In TR-FRET formats the signal depends on donor and acceptor labels being close together.

Experiment [2] deals with T1, CYP11B2 (Homo sapiens (Human), UniProt P19099). In words: G-402 cellular enzyme assay, human CYP11B2 (aldosterone release, HTRF). The following applies: G-402 cells expressing human CYP11B2, 1 μM Deoxycorticosterone. It counts as cell-based.
T1 sequence (P19099 25-503): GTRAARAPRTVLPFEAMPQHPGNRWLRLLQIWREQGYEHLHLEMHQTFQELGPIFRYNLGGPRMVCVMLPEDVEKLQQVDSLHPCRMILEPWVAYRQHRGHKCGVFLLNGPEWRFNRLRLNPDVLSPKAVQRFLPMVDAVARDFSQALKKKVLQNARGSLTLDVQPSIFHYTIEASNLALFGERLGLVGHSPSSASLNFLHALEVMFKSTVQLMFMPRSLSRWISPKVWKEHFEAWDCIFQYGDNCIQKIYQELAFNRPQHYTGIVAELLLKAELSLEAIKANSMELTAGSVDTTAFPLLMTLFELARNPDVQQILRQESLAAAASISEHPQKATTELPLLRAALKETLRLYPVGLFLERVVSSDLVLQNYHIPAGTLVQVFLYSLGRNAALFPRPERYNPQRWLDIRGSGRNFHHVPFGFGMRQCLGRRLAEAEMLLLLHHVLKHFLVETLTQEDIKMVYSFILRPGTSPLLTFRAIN
Excerpt: as §1, §2, §3, §4, §5, §6, §7

The conditions of experiment [3]: rat, cited from earlier work; for plasma aldosterone: 4 weeks (FAD286), 4 and 8 weeks (spironolactone) of treatment.
For experiment [4] the following is noted: rats with experimental heart failure; cited from earlier work.
In experiment [5] the target is T1, CYP11B2. The following applies: patients with primary aldosteronism, cited from earlier work.

Molecules are shown by their SMILES.

For `O=C(c1ncccc1Cl)N1CC(Nc2cncc(N3CCc4cc(Cl)ccc4C3=O)c2)C1` [Example 17, 6-Chloro-2-[5-[[1-(3-chloropyridine-2-carbonyl)azetidin-3-yl]amino]pyridin-3-yl]-3,4-dihydroisoquinolin-1-one], the EC50 in experiment [1] was 1910 nM; in experiment [2] it was 145 nM.

Turning to `Cc1cncc(C(=O)N2CC(Nc3cncc(N4CCc5cc(Cl)ccc5C4=O)c3)C2)c1` [Example 18, 6-Chloro-2-[5-[[1-(5-methylpyridine-3-carbonyl)azetidin-3-yl]amino]pyridin-3-yl]-3,4-dihydroisoquinolin-1-one], the EC50 in experiment [1] is 1290 nM; in experiment [2], 9 nM.

In the case of `Cc1ccncc1C(=O)N1CC2(CC(Nc3cncc(N4C(=O)c5ccc(Cl)cc5C4(C)C)c3)C2)C1` [Example 19, 5-Chloro-3,3-dimethyl-2-[5-[[2-(4-methylpyridine-3-carbonyl)-2-azaspiro[3.3]heptan-6-yl]amino]pyridin-3-yl]isoindol-1-one], the values for the 50% effective concentration (EC50) in experiment [1] and in experiment [2] were 10900 nM and 86 nM, respectively.

Turning to `Cc1noc(C)c1C(=O)N1CC(Nc2cncc(N3CCc4cc(Cl)ccc4C3=O)c2)C1` [Example 20, 6-Chloro-2-[5-[[1-(3,5-dimethylisoxazole-4-carbonyl)azetidin-3-yl]amino]-3-pyridyl]-3,4-dihydroisoquinolin-1-one], the EC50 in experiment [1] was 3880 nM; in experiment [2], 55 nM.

Take `Cn1cc(C(=O)N2CC(Nc3cncc(N4CCc5cc(Cl)ccc5C4=O)c3)C2)cn1` [Example 21, 6-Chloro-2-[5-[[1-(1-methylpyrazole-4-carbonyl)azetidin-3-yl]amino]-3-pyridyl]-3,4-dihydroisoquinolin-1-one]: the EC50 in experiment [1] was determined as 16900 nM; in experiment [2] it was 7 nM.

In the case of `Cn1ccnc1C(=O)N1CC(Nc2cncc(N3CCc4cc(Cl)ccc4C3=O)c2)C1` [Example 22, 6-Chloro-2-[5-[[1-(1-methylimidazole-2-carbonyl)azetidin-3-yl]amino]-3-pyridyl]-3,4-dihydroisoquinolin-1-one], the EC50 in experiment [1] was 2090 nM; in experiment [2], 23 nM.

Regarding `Cc1noc(C)c1C(=O)N1CC(Nc2cncc(N3C(=O)c4ccc(Cl)cc4C3(C)C)c2)C1` [Example 23, 5-Chloro-2-[5-[[1-(3,5-dimethylisoxazole-4-carbonyl)azetidin-3-yl]amino]-3-pyridyl]-3,3-dimethyl-isoindolin-1-one], the EC50 is 5950 nM in experiment [1] and 30 nM in experiment [2].

Turning to `Cn1cc(C(=O)N2CC(Nc3cncc(N4C(=O)c5ccc(Cl)cc5C4(C)C)c3)C2)cn1` [Example 24, 5-Chloro-3,3-dimethyl-2-[5-[[1-(1-methylpyrazole-4-carbonyl)azetidin-3-yl]amino]-3-pyridyl]isoindolin-1-one], the EC50 in experiment [1] worked out at 6020 nM; in experiment [2], 1 nM.

For `CC1(C)c2cc(C#N)ccc2C(=O)N1c1cncc(NC2CN(S(=O)(=O)C3CC3)C2)c1` [Example 31, 2-[5-[(1-Cyclopropylsulfonylazetidin-3-yl)amino]-3-pyridyl]-3,3-dimethyl-1-oxo-isoindoline-5-carbonitrile], the half-maximal effective concentration (EC50) in experiment [1] was found to be 7000 nM; in experiment [2] it was 12 nM.

In the case of `Cc1ccncc1C(=O)N1CC(Nc2cncc(N3C(=O)c4ccc(C#N)cc4C3(C)C)c2)C1` [Example 32, 3,3-Dimethyl-2-[5-[[1-(4-methylpyridine-3-carbonyl)azetidin-3-yl]amino]-3-pyridyl]-1-oxo-isoindoline-5-carbonitrile], the EC50 in experiment [1] worked out at 6140 nM; in experiment [2] it was 27 nM.

As to `Cn1cc(C(=O)N2CC(Nc3cncc(N4C(=O)c5ccc(C#N)cc5C4(C)C)c3)C2)cn1` [Example 33], the EC50 came out at 29500 nM in experiment [1] and 31 nM in experiment [2].

Consider `Cn1ccnc1C(=O)N1CC(Nc2cncc(N3C(=O)c4ccc(C#N)cc4C3(C)C)c2)C1` [Example 34, 3,3-Dimethyl-2[5-[[1-(1-methylimidazole-2-carbonyl)azetidin-3-yl]amino]-3-pyridyl]-1-oxo-isoindoline-5-carbonitrile], for which the EC50 in experiment [1] was found to be 586 nM; in experiment [2], 5 nM.

As for `CC1(C)c2cc(C#N)ccc2C(=O)N1c1cncc(NC2CCN(S(=O)(=O)C3CC3)CC2)c1` [Example 35, 2-[5-[(1-Cyclopropylsulfonyl-4-piperidyl)amino]-3-pyridyl]-3,3-dimethyl-1-oxo-isoindoline-5-carbonitrile], the figures for the EC50 in experiment [1] and in experiment [2] were 13300 nM and 24 nM, respectively.

On to `CC1(C)c2cc(C#N)ccc2C(=O)N1c1cncc(NC2CCN(C(=O)c3ncccc3Cl)CC2)c1` [Example 36, 2-[5-[[1-(3-Chloropyridine-2-carbonyl)-4-piperidyl]amino]-3-pyridyl]-3,3-dimethyl-1-oxo-isoindoline-5-carbonitrile], for which the EC50 in experiment [1] came to 1400 nM; in experiment [2], 22 nM.

Consider `Cc1ccncc1C(=O)N1CCC(Nc2cncc(N3C(=O)c4ccc(C#N)cc4C3(C)C)c2)CC1` [Example 37, 3,3-Dimethyl-2[5-[[1-(4-methylpyridine-3-carbonyl)-4-piperidyl]amino]-3-pyridyl]-1-oxo-isoindoline-5-carbonitrile], for which the EC50 in experiment [1] stood at 10500 nM; in experiment [2], 70 nM.

Regarding `CC1(C)c2cc(C#N)ccc2C(=O)N1c1cncc(NC2CN(C(=O)c3ncccc3Cl)C2)c1` [Example 38, 2-[5-[[1-(3-Chloropyridine-2-carbonyl)azetidin-3-yl]amino]-3-pyridyl]-3,3-dimethyl-1-oxo-isoindoline-5-carbonitrile], the EC50 came to 1200 nM in experiment [1] and 31 nM in experiment [2].

With `Cn1cncc1C(=O)N1CC(Nc2cncc(N3C(=O)c4ccc(C#N)cc4C3(C)C)c2)C1` [Example 39, 3,3-Dimethyl-2-[5-[[1-(3-methylimidazole-4-carbonyl)azetidin-3-yl]amino]-3-pyridyl]-1-oxo-isoindoline-5-carbonitrile], the results for the EC50 in experiment [1] and in experiment [2] were 13900 nM and 25 nM, respectively.

Take `Cn1cc(C(=O)N2CCC(Nc3cncc(N4C(=O)c5ccc(C#N)cc5C4(C)C)c3)CC2)cn1` [Example 40, 3,3-Dimethyl-2-[5-[[1-(1-methylpyrazole-4-carbonyl)-4-piperidyl]amino]-3-pyridyl]-1-oxo-isoindoline-5-carbonitrile]: the EC50 in experiment [1] was found to be 9570 nM; in experiment [2] it was 52 nM.

Turning to `Cn1ccnc1C(=O)N1CCC(Nc2cncc(N3C(=O)c4ccc(C#N)cc4C3(C)C)c2)CC1` [Example 41, 3,3-Dimethyl-2-[5-[[1-(1-methylimidazole-2-carbonyl)-4-piperidyl]amino]-3-pyridyl]-1-oxo-isoindoline-5-carbonitrile], the EC50 in experiment [1] was determined as 190 nM; in experiment [2] it was 17 nM.

Turning to `Cn1cncc1C(=O)N1CCC(Nc2cncc(N3C(=O)c4ccc(C#N)cc4C3(C)C)c2)CC1` [Example 42, 3,3-Dimethyl-2-[5-[[1-(3-methylimidazole-4-carbonyl)-4-piperidyl]amino]-3-pyridyl]-1-oxo-isoindoline-5-carbonitrile], the EC50 in experiment [1] came to 10600 nM; in experiment [2], 56 nM.

Consider `N#Cc1ccc([C@H]2CCCc3cncn32)cc1` [FAD286], for which, in experiment [3], the plasma aldosterone result is on record as “reduced”; the “angiotensin II and salt-stimulated PAI-1 mRNA expression in the aorta and the heart” value was “not”. Besides, the “blood pressure and cardiovascular function and structure” value in experiment [4] was “improved”.

Regarding `N#Cc1ccc([C@H]2CCc3cncn32)c(F)c1` [LCI699], the circulating aldosterone levels result in experiment [5] (oral) is “significantly lower”. In experiment [5], the blood pressure result is recorded as “mildly decreased” and the hypokalemia entry is “corrected”.

Take `CC(=O)S[C@@H]1CC2=CC(=O)CC[C@]2(C)[C@H]2CC[C@@]3(C)[C@@H](CC[C@@]34CCC(=O)O4)[C@H]12` [spironolactone]: in experiment [3], the plasma aldosterone entry is “increased”; the “angiotensin II and salt-stimulated PAI-1 mRNA expression in the aorta and the heart” value is given as “enhanced”.

A word on the EC50: it is the concentration at which the effect is half-maximal. A low value points to higher potency in that assay.
